Experimental data reported in patent US20110224079A1, “SPIROHETEROCYCLIC N-OXYAMIDES AS PESTICIDES” (SYNGENTA CROP PROTECTION LLC, priority 2008, published 2011).

Tests used:
[1] = system: Thrips tabaci (onion thrips); test: Example B3: activity against Thrips tabaci, sprayed sunflower leaf discs (feeding/residual contact, preventive); type: in vivo; conditions: foliar, 144 h, mixed population, 6 days
Source text: Activity Against Thrips tabaci (Onion Thrips)
(Mixed Population, Feeding/Residual Contact Activity, Preventive)

[2] = system: Bemisia tabaci (tobacco white fly); test: Example B7: activity against Bemisia tabaci, sprayed bean plants (larvicide, contact/feeding); type: in vivo; conditions: 504 h, bean plants with N-2 nymphs sprayed, three weeks, read-out: activity (efficacy, number of emerged adults)
Description: Activity Against Bemisia tabaci (Tobacco White Fly)
(Larvicide, Contact/Feeding)
Bean plants are infested with 20-30 adults that were removed after a 4 day egg-laying period. After another 7 days, bean plants with hatched nymphs (N-2) are treated (2 replicates) with the test solutions in a spray chamber. Three weeks later, samples are checked for number of emerged adults. Efficacy was calculated by comparing number of emerged adults in treated and non treated samples.

[3] = system: Aphis Craccivora (cowpea aphid); test: Example B9: activity against Aphis craccivora, sprayed pea seedlings (contact/feeding); type: in vivo; conditions: 144 h, infested pea seedlings sprayed, 6 days
Source text: (§1) Activity Against Aphis Craccivora (Cowpea Aphid)
(Mixed Population, Contact/Feeding)
6 days after treatment, samples are checked for mortality.

[4] = system: Aphis Craccivora (cowpea aphid); test: Example B11: translaminar activity against Aphis craccivora on French bean leaves; type: in vivo; conditions: 120 h, upper leaf side painted, aphids on lower side, 5 days
Description: Translaminar Activity Against Aphis Craccivora (Cowpea Aphid)
French bean leaves (Phaseolus vulgaris) are infested with about 20 mixed age individuals on the lower leaf side using clip cages. 1 day after the infestation, the upper side of the leaves is treated with the test solution by painting. 5 days later, samples are checked for mortality.

[5] = system: Aonidiella Aurantii (red scale); test: Example B12: activity against Aonidiella aurantii, dipped potato tubers; type: in vivo; conditions: 6-8 weeks after application, read-out: activity (number of crawlers of the next generation)
Source text: Activity Against Aonidiella Aurantii (Red Scale)
Treatment of potato tubers by dipping the in the test solution. One day later, tubers are infested with about 50 crawlers. 6-8 weeks after application samples are checked for the number of crawlers of the next generation (compared to the non treated samples).

[6] = system: Myzus persicae (green peach aphid); test: Example B17: activity against Myzus persicae on sprayed pepper plants (feeding/residual contact); type: in vivo; conditions: 144 h, infested pepper plants sprayed, 6 days
[7] = system: Myzus persicae (green peach aphid); test: Example B13: drench activity against Myzus persicae, pea seedlings in field soil; conditions: 168 h, read-out: drench activity (mortality)
[8] = system: Nilaparvata lugens (brown rice planthopper); test: Example B8: activity against Nilaparvata lugens, sprayed rice seedlings (larvicide, feeding/contact); conditions: in Oryza sativa, read-out: activity (mortality, growth regulation, effects on F1 generation)
[9] = system: Myzus persicae (green peach aphid); test: Example B2: activity against Myzus persicae, pea seedling roots in test solution (systemic/feeding, curative); conditions: 144 h, read-out: activity (mortality)
[10] = system: Myzus persicae (green peach aphid); test: Example B1: activity against Myzus persicae, sprayed sunflower leaf discs (feeding/residual contact, preventive); conditions: foliar, 144 h, read-out: activity (mortality)
[11] = system: Aphis Craccivora (cowpea aphid); test: Example B10: activity against Aphis craccivora, pea seedling roots in test solution (systemic/feeding); type: in vivo; conditions: 144 h, roots of infested pea seedlings in test solution, 6 days
Source text: as §1
(Mixed Population, Systemic/Feeding)

[12] = system: Tetranychus urticae (two-spotted spider mite); test: Example B4: activity against Tetranychus urticae, sprayed bean leaf discs (feeding/residual contact, preventive); conditions: foliar, 192 h, read-out: activity (egg, larval and adult mortality)
[13] = system: Plutella xylostella (diamond back moth); test: Example B5: activity against Plutella xylostella, artificial diet in microtiter plate (larvicide, preventive); type: in vivo; conditions: 120 h, L2 larvae, 5 days, read-out: activity (larval mortality, antifeedant, growth regulation)
Description: Activity Against Plutella xylostella (Diamond Back Moth)
(Larvicide, Feeding/Residual Contact Activity, Preventive)
24-well microtiter plate (MTP) with artificial diet is treated with test solutions by pipetting. After drying, the MTP's are infested with larvae (L2)(10-15 per well). After an incubation period of 5 days, samples are checked for larval mortality, antifeedant and growth regulation.

SMILES | mortality at 400 ppm [1] [%] | pest or weed control at 200 ppm [2] [%] | mortality at 400 ppm [3] [%] | mortality at 400 ppm [4] [%] | pest or weed control at 200 ppm [5] [%] | mortality at 200 ppm [6] [%] | mortality at 25 ppm [7] [%] | mortality at 400 ppm [8] [%] | mortality at 400 ppm [9] [%] | mortality at 400 ppm [10] [%] | mortality at 400 ppm [11] [%] | mortality at 400 ppm [12] [%] | mortality at 400 ppm [13] [%]
CON1CCC2(CC1)C(O)=C(c1c(C)cc(C)cc1C)C(=O)N2OC [P2.7] | > 80 | > 80 | > 80 | > 80 | > 80 | ≥ 80 | > 80 | > 80 | > 80 | > 80 |  |  | 
C#CCON1C(=O)C(c2c(C)cc(C)cc2C)=C(O)C12CCN(OC)CC2 [P2.8, 4-Hydroxy-8-methoxy-1-prop-2-ynyloxy-3-(2,4,6-trimethyl-phenyl)-1,8-diaza-spiro[4.5]dec-3-en-2-one] |  | > 80 |  | > 80 | > 80 | ≥ 80 | > 80 | > 80 | > 80 | > 80 | > 80 | > 80 | 
CON1CCC2(CC1)C(O)=C(c1cc(C)c(C)cc1Cl)C(=O)N2OC1CCCO1 (centres unmarked) [P2.63] |  |  |  |  |  | ≥ 80 |  |  |  |  |  |  | > 80
CCOC(=O)OC1=C(c2cc(C)ccc2C)C(=O)N(OCOC)C12CCN(OC)CC2 [P1.2, Carbonic acid 3-(2,5-dimethyl-phenyl)-8-methoxy-1-methoxy-methoxy-2-oxo-1,8-diaza-spiro[4.5]dec-3-en-4-yl ester ethyl ester] |  | > 80 | > 80 | > 80 |  | ≥ 80 | > 80 | > 80 | > 80 | > 80 | > 80 |  | > 80
CON1CCC2(CC1)C(O)=C(c1c(C)cc(C)cc1C)C(=O)N2OC1CCCO1 (centres unmarked) [P2.18, 4-Hydroxy-8-methoxy-1-(tetrahydro-furan-2-yloxy)-3-(2,4,6-trimethyl-phenyl)-1,8-diaza-spiro[4.5]dec-3-en-2-one] | > 80 | > 80 |  | > 80 | > 80 | ≥ 80 | > 80 | > 80 | > 80 | > 80 | > 80 | > 80 | 
C=CCON1C(=O)C(c2c(C)cc(C)cc2C)=C(OC(=O)OCC)C12CCN(OC)CC2 [P1.17] |  | > 80 | > 80 | > 80 | > 80 | ≥ 80 | > 80 | > 80 | > 80 |  | > 80 | > 80 | 
COCON1C(=O)C(c2c(C)cc(Br)cc2C)=C(O)C12CCN(OC)CC2 [P2.14, 3-(4-bromo-2,6-dimethyl-phenyl)-4-hydroxy-8-methoxy-1-methoxymethoxy-1,8-diaza-spiro[4.5]dec-3-en-2-one] | > 80 | > 80 |  |  | > 80 |  | > 80 | > 80 | > 80 | > 80 | > 80 | > 80 | 
CON1CCC2(CC1)C(O)=C(c1c(C)cc(C)cc1C)C(=O)N2O [P2.4, 1,4-Dihydroxy-8-methoxy-3-(2,4,6-trimethyl-phenyl)-1,8-diaza-spiro[4.5]dec-3-en-2-one] |  | > 80 |  |  |  |  | > 80 | > 80 | > 80 | > 80 |  | > 80 | > 80
CCOC(=O)OC1=C(c2c(C)cccc2C)C(=O)N(OC)C12CCN(OC)CC2 [P1.74] | > 80 |  |  |  |  |  |  |  | > 80 | > 80 |  | > 80 | > 80
